SMILES strings stand for the structures.

In assay [1] the target is T1, HsCBS (Homo sapiens, UniProt P35520, DEL516-525).
T1 construct: purchased GenScript
T1 sequence (P35520 with tags, fused parts or gaps DEL516-525): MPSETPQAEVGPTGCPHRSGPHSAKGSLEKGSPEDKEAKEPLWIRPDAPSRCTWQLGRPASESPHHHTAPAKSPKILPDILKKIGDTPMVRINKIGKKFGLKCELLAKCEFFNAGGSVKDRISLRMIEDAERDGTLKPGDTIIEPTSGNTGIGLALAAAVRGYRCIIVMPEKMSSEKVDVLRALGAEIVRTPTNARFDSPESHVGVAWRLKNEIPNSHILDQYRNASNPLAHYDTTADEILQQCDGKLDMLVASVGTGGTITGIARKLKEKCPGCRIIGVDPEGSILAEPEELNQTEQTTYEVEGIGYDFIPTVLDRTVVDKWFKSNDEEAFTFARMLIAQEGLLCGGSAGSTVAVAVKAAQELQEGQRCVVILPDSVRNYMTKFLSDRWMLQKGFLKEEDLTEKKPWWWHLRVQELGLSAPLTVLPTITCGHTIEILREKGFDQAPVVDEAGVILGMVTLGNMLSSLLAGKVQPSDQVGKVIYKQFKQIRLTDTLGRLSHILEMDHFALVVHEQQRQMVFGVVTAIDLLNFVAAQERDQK
Put plainly: CBS H2S production assay (AzMC fluorometric), HsCBS. It is filed as biochemical. The settings on record: for IC50: AzMC assay, 5 mM Cys + 2 mM Hcy. The method, then:
CBS H2S production assay. H2S-producing activity of CBS, utilizing Cys and Hcy, was determined using a fluorometric assay employing the H2S-selective fluorescent probe 7-azido-4-methylcoumarin (AzMC) as described previously. The reaction mixture in a total volume of 200 µL contained 50 mM Tris–HCl pH 8.6, 5 μM PLP, 2 mM Hcy, 10 μM AzMC and 500 ng tScCBS or HsCBS. The plate was incubated for 10 min at 37°C and the enzymatic activity was triggered by adding 0–50 mM Cys. The fluorescence of the mixtures at 450 nm (excited at 365 nm) was followed for 2 h at 37°C. All measurements were performed in triplicates using Tecan Infinite 200 PRO microplate reader. Kinetic data were analyzed using GraphPad Prism software.

The target in assay [2] is T1, HsCBS. Put plainly: CBL-LDH coupled-coupled CBS assay, HsCBS. It is filed as biochemical. The settings on record: for Vmax / kcat: CBL-LDH coupled-coupled assay; for Reduction of activity catalyzing condensation of Cys and Hcy yielding H2S: AOAA-inhibited HsCBS (200 µM AOAA). The protocol: CBS coupled-coupled assay. CBS canonical activity utilizing Ser and Hcy was determined using cystathionine beta-lyase (CBL) and lactate-dehydrogenase (LDH) coupled-coupled assay as described previously with a few modifications. Native L-LDH from rabbit muscle was purchased from Sigma (catalog no. L2500) and recombinant CBL was purchased from Creative Enzymes (catalog no. NATE-1146). In a final volume of 150 µL, the reaction mixture contained 50 mM Tris–HCl pH 8.9, 20 µM PLP, 500 µM NADH, 1.3 µM LDH, 0.1 µM CBL, 0–20 mM Ser (or 0–50 mM Cys) and 500 ng of tScCBS or HsCBS. Assays with HsCBS were carried out in the absence or presence of 500 µM CBS allosteric activator S-adenosylmethionine (SAM). The reaction was triggered by the addition of 2 mM Hcy and the oxidation of NADH to NAD^+ was followed by monitoring the decrease in absorbance at 340 nm over time (ε340 = 6220 M^−1.cm^−1). […] All measurements were performed in triplicates using Tecan Infinite 200 PRO microplate reader. Kinetic data were analyzed using GraphPad Prism software.

Assay [3] relates to HEK293 cells. Put plainly: Bioenergetic analysis (Seahorse XFe24 flux analyzer). In kind it is cell-based, human. The method, then:
Bioenergetic analysis. The Seahorse XFe24 flux analyzer (Agilent Technologies, Santa Clara, CA, USA) was used to estimate mitochondrial respiration of HEK293 cells. Cells were seeded in Seahorse XFe24 Cell Culture Microplates at density of 15,000 cells/well in a total volume of 200 µl, incubated for 2 h, followed by treatment for 24 h as described above for H2S live imaging. Next day, culture medium was replaced for Seahorse XF DMEM supplemented with 2 mM glutamine, 1 mM pyruvate and 10 mM glucose. The microplate was then incubated in a CO2-free incubator at 37°C for 1 h, to allow temperature and pH equilibration, as recommended by the manufacturer. The assay protocol included two measurements of basal values of oxygen consumption rate (OCR), followed by the injection of 1 µM oligomycin, used to evaluate ATP generation rate. Subsequently, the mitochondrial oxidative phosphorylation uncoupler FCCP (0.2 µM) was added to estimate maximal mitochondrial respiratory capacity. Lastly, 0.5 µM of rotenone and antimycin A (each) were injected to inhibit the electron flux through the complex I and III, respectively, aiming to detect the extra-mitochondrial OCR. Data were analyzed with Wave package (version 2.6; Agilent Technologies, Santa Clara, CA, USA) and GraphPad Prism 8 (GraphPad Software Inc.; San Diego, CA, USA).

The test system of assay [4] is HEK293 cells. Nature of the assay: Detection of H2S production in live cells (AzMC imaging). In kind it is cell-based, human. The method, then: Cell culture. The human embryonic kidney cell line HEK293 (ATCC CRL-1573) was cultured in Dulbecco’s Modified Eagle Medium (DMEM) containing 4.5 g/L glucose. The culture medium was supplemented with 10% (v/v) heat-inactivated fetal bovine serum, 2 mM Glutamax, non-essential amino acids, 100 U/ml penicillin and 100 μg/ml streptomycin. Cells were grown in a humidified incubator at 37 °C and 5% CO2 atmosphere. Cell viability and proliferation were assessed using MTT and BrdU assay, respectively, essentially as described previously. Detection of H2S production in live cells. Cells were seeded in black 96-well plates with optical bottom (15,000 cells/well). The following morning, the cells were treated with 150 µM AOAA, 1/3/10 mM Ser or their combination for 24 h. After that the culture medium was replaced with Hank’s Balanced Salt Solution (HBSS) buffer supplemented with 100 μM AzMC and further incubated for 1 h. Dye’s specific fluorescence was visualized using a Leica DFC360 FX microscope and images were captured with Leica Application Suite X software (Leica Biosystems, Germany). Images were analyzed with ImageJ software (version 1.8.0; NIH, Bethesda, MD, USA) and data were analyzed using GraphPad Prism 8 (GraphPad Software Inc.; San Diego, CA, USA).

Turning to `N[C@@H](CO)C(=O)O` [Ser, serine], in assay [1] (HsCBS in the absence and presence of SAM, 1 mM Ser after 200 µM AOAA incubation, then desalting), the “Recovery of activity of AOAA-inhibited enzyme” value was “substantial recovery”. The values for the Vmax in assay [2] (HsCBS + SAM) and in assay [2] (HsCBS – SAM) were 156.3 ± 7.6 µmol/h/mg and 37.2 ± 1.5 µmol/h/mg, respectively. Besides, the results for the catalytic constant (kcat) in assay [2] (HsCBS + SAM) and in assay [2] (HsCBS – SAM) were 2.7 ± 0.1 s⁻¹ and 0.63 ± 0.06 s⁻¹, respectively. Further, the “Impact on mitochondrial function” value in assay [3] (HEK293, 1, 3 and 10 mM Ser alone, 24 h) is “did not have any significant impact”. In assay [3] (HEK293 inhibited by 150 µM AOAA, supplemented with 1, 3 or 10 mM Ser), the “Cellular bioenergetics compared to untreated controls” value is listed as “correction or normalization”. For the same molecule, in assay [4] (HEK293, 10 mM Ser in growth medium), the “Reduction of cellular H2S productivity” value is ~ 29%. The “Reduction of H2S production” value in assay [4] (HEK293, Ser added to medium (1/3/10 mM, 24 h), concentration-dependent, 'up to') was ~ 30%. Besides, in assay [4] (HEK293 inhibited by 150 µM AOAA, with 1, 3 or 10 mM Ser), the “Recovery of H2S-producing capacity, % of control WT activity” value is on record as 82–89%.
For the molecule `NOCC(=O)O` [AOAA, aminooxyacetic acid], the figures for the IC50 in assay [1] (HsCBS in the absence of SAM) and in assay [1] (HsCBS in the presence of 500 µM SAM) were 12.8 µM and 10.9 µM, respectively. Further, the results for the “Reduction of activity catalyzing condensation of Cys and Hcy yielding H2S” value in assay [2] (absence of SAM) and in assay [2] (presence of SAM) were 63% and 71%, respectively. Moreover, the “Effect on condensation of Ser and Hcy (canonical reaction)” value in assay [2] (HsCBS ± 500 µM SAM inhibited by 200 µM AOAA, 5 mM Ser + 2 mM Hcy) is on record as “not impaired”. In assay [3] (HEK293, 150 µM AOAA, 24 h), the “Bioenergetics parameters (basal respiration, maximal respiration, ATP production)” value was “significant decrease”. Further, the “H2S-producing activity, % of the controls” value in assay [4] (HEK293, 150 µM AOAA, 24 h) is given as ~ 15%.

These data come from paper PMC9304066, “H2S biogenesis by cystathionine beta-synthase: mechanism of inhibition by aminooxyacetic acid and unexpected role of serine” (Cellular and Molecular Life Sciences: CMLS, 2022).
